Tests used:
Type in all cases: cell-based
[1] = tested on: Aspergillus niger ATCC®16404™; test: MIC determination, broth microdilution, GOX+LPO with potentiator candidate; settings: A. niger; enhancer 1%-0.01%
Description: (§1) The minimum inhibitory concentration (MIC) is defined as the lowest concentration of an antimicrobial agent that results in a complete inhibition of microbial growth (determined via visual evaluation or absorbance measurements) after overnight incubation. This endpoint measurement is used to define the microbial susceptibility towards an antimicrobial agent. Here, the antimicrobial agent is a combination of the natural enzymes GOX+LPO.
(§2) To determine the MIC of the described combinations, a classical broth microdilution assay was used to determine the susceptibility of a series of microbes commonly detected in infected wounds, including (a) the Gram-positive bacterium Staphylococcus aureus ATCC® 6538™ (results shown below), (b) the Gram-negative bacterium Pseudomonas aeruginosa ATCC®9027™ (results shown below), (c) the yeast Candida albicans ATCC®10231™ (results shown below), and (d) the fungus Aspergillus niger ATCC®16404™ (results shown below). In brief, a […] serial dilution of the enzymatic GOX+LPO solution was prepared in a transparent, flat-bottomed 96-well test plate with final concentrations ranging from 0.005 to 0.00000977% (v/v). To each well, a fixed volume of the enzymatic substrate containing 3,3% (w/v) glucose and 0,084% (w/v) potassium iodide, as well as the microbial inoculum with an OD600 of 0.1 was added. In the event the enzyme combination was evaluated in the presence of a potentiator candidate, the latter was added together with the enzymatic substrate in a final concentration ranging from 100 to 0,00125% (v/v). For each combination evaluated, a blank (no addition of microbial inoculum) was included. Positive (inoculum only) and negative (background solution only) were included to evaluate the performance of the test and to select the enzymatic GOX+LPO concentration at which no microbial growth is detected (i.e., absorbance equal to that of the background solution only). Then, the 96-well test plate was incubated for 24 hours at 37° C. (S. aureus, P. aeruginosa and C. albicans) or 25° C. (A. niger). After incubation, the absorbance of each well was measured using a plate spectrophotometer (Spectramax ID3, Molecular Devices). For each combination evaluated, this test was repeated at least 5 times. The collected data were further analyzed in MS Excel. Mean absorbance data were visualized in a table format in which the MIC was highlighted.

[2] = tested on: Staphylococcus aureus ATCC® 6538™; test: as above; settings: S. aureus
Description: as §1, §2

[3] = tested on: Pseudomonas aeruginosa ATCC®9027™; test: as above; settings: P. aeruginosa
Description: as §1, §2

[4] = tested on: P. aeruginosa (ATCC®9027™); test: Microbial challenge testing in alginogel with GOX+LPO; settings: for reduction in absolute P. aeruginosa counts compared to guaiacol in the same concentration: alginogel with GOX+LPO, enhancer 0.0005%; for antimicrobial activity of enhancing candidate only against P. aeruginosa: alginogel without enzymes, highest concentration tested; for reduction in absolute P. aeruginosa counts compared to reference (enzymes only): alginogel, 0.0075% GOX+LPO
Description: (§3) To determine the ability of an antimicrobial agent to elicit an antimicrobial preserving efficacy in a gel environment, a microbiological challenge test can be performed. Here, the antimicrobial agent is a combination of the natural enzymes GOX+LPO. […] Microbial challenge testing was performed according to the method described in the European Pharmacopoeia current version chapter 5.1.3 ‘Efficacy of antimicrobial preservation’, but with adapted time points (0, 10, 20, 30, 40, 50, 60, 70 and 80 min instead of 0, 2, 7, 14 and 28 days). In brief, for every enhancing agent to be evaluated, a lab-scale alginogel (based on the Flaminal® formulation, but without the original enhancer guaiacol) including 0.0075% GOX+LPO (1:1) was prepared according to standard practices. Enhancing agents were added to the alginogel in a final concentration ranging from 0.01 to 0,00025% (v/w). As a reference, an alginogel including 0.0075% GOX+LPO (1:1) without the addition of any enhancing agent was included (designated as: enzymes only). As a control, an alginogel without both GOX+LPO (1:1) enzyme solution and enhancing agent (designated as: empty gel) as well as an alginogel only containing the enhancing agent only (designated as: enhancing candidate only) were included. After preparation, a homogenous sample of 10 g was transferred into a 50 ml conical tube for each alginogel to be evaluated and microorganism to be tested. For each test microorganism, including S. aureus (ATCC®6538™), P. aeruginosa (ATCC®9027™), C. albicans (ATCC®10231™) and A. niger (ATCC®16404 ™), a microbial suspension of about 10^8 CFU/ml was prepared in sterile diluent (buffered sodium chloride-peptone solution). Then, the 50 ml conical tubes containing the alginogel samples to be evaluated were inoculated with 100 μl of the designated inoculum. At the start (time point 0) and after 0, 10, 20, 30, 40, 50, 60, 70 and 80 min, the number of viable microorganisms per gram product (expressed as CFU/g) was determined by transferring a sample of 0.5 g of the product into a 15 ml conical tube containing 4.5 ml of sterile diluent and applying general dilution and plate count techniques. For each combination evaluated, this test was repeated at least 1-3 times. The collected data were further analyzed in MS Excel. Mean absolute counts (expressed as log CFU/g) were visualized in a graph.

A. niger (ATCC®16404 ™) = test: as above; settings: for reduction in absolute A. niger counts compared to guaiacol in the same concentration: alginogel with GOX+LPO; for antimicrobial activity of enhancing candidate only against A. niger: alginogel without enzymes, highest concentration tested; for reduction in absolute A. niger counts compared to reference (enzymes only): alginogel, 0.0075% GOX+LPO
Description: as §3

[5] = tested on: C. albicans (ATCC®10231™); test: as above; settings: for reduction in absolute C. albicans counts compared to guaiacol in the same concentration: alginogel with GOX+LPO, enhancer 0.0005%; for antimicrobial activity of enhancing candidate only against C. albicans: alginogel without enzymes, highest concentration tested; for reduction in absolute C. albicans counts compared to reference (enzymes only): alginogel, 0.0075% GOX+LPO
Description: as §3

Row | Compound | MIC: GOX+LPO enzyme solution needed to completely inhibit growth [1] | increase in MIC compared to reference [1] | MIC: GOX+LPO enzyme solution needed to completely inhibit growth ([2]; enhancer 0.01%) | increase in MIC compared to reference or guaiacol solution ([2]; enhancer 0.01%) | MIC: GOX+LPO enzyme solution needed to completely inhibit growth ([2]; enhancer 10%) | increase in MIC compared to reference or guaiacol solution ([2]; enhancer 10%) | MIC: GOX+LPO enzyme solution needed to completely inhibit growth ([3]; enhancer 0.0025-0.00125%) | increase in MIC compared to reference or guaiacol solution ([3]; enhancer 0.0025-0.00125%) | MIC: GOX+LPO enzyme solution needed to completely inhibit growth ([3]; enhancer 0.01-0.005%) | increase in MIC compared to reference or guaiacol solution ([3]; enhancer 0.01-0.005%) | reduction in absolute P. aeruginosa counts compared to guaiacol in the same concentration [4] | antimicrobial activity of enhancing candidate only against P. aeruginosa [4] | reduction in absolute P. aeruginosa counts compared to reference (enzymes only) ([4]; enhancer 0.00125-0.0005%) | reduction in absolute P. aeruginosa counts compared to reference (enzymes only) ([4]; enhancer 0.0025%) | reduction in absolute A. niger counts compared to guaiacol in the same concentration (A. niger (ATCC®16404 ™); enhancer 0.0005%) | antimicrobial activity of enhancing candidate only against A. niger (A. niger (ATCC®16404 ™)) | reduction in absolute A. niger counts compared to reference (enzymes only) (A. niger (ATCC®16404 ™); enhancer 0.0025%) | reduction in absolute C. albicans counts compared to guaiacol in the same concentration [5] | antimicrobial activity of enhancing candidate only against C. albicans [5] | reduction in absolute C. albicans counts compared to reference (enzymes only) ([5]; enhancer 0.0025%) | also measured
1 | O=C(O)[C@@H]1CCCN1 [Proline, proline] | 0.000156 % (v/v) | 2 × | 0.0000195 % (v/v) | 4 × | 0.0000391 % (v/v) | 2 × | 0.000625 % (v/v) | 2 × | 0.000625 % (v/v) | 2 × | faster complete reduction | no antimicrobial activity | faster complete reduction | immediate entire reduction | faster complete reduction | no antimicrobial activity | faster complete reduction | faster complete reduction | no antimicrobial activity | immediate entire reduction | reduction in absolute C. albicans counts compared to reference (enzymes only) ([5]; enhancer 0.00125%): faster complete reduction
2 | N[C@@H](CO)C(=O)O [Serine, serine] | 0.000156 % (v/v) | 2 × |  |  | ≤ 0.0000977 % (v/v) | ≥ 6 × | 0.000625 % (v/v) | 2 × | 0.000625 % (v/v) | 2 × | faster complete reduction | no antimicrobial activity | faster complete reduction | immediate entire reduction | faster complete reduction | no antimicrobial activity |  | faster complete reduction | no antimicrobial activity | immediate entire reduction | MIC: GOX+LPO enzyme solution needed to completely inhibit growth ([2]; enhancer 0.0025% to 0.00125%): 0.0000391 % (v/v); increase in MIC compared to reference or guaiacol solution ([2]; enhancer 0.0025% to 0.00125%): 2 ×; MIC: GOX+LPO enzyme solution needed to completely inhibit growth ([2]; enhancer 0.01% to 0.005%): 0.0000391 % (v/v); increase in MIC compared to reference or guaiacol solution ([2]; enhancer 0.01% to 0.005%): 2 ×; reduction in absolute A. niger counts compared to reference (enzymes only) (A. niger (ATCC®16404 ™); enhancer 0,0025-0,0005%): faster complete reduction; reduction in absolute C. albicans counts compared to reference (enzymes only) ([5]; enhancer 0.00125%): faster complete reduction
3 | C[C@@H](O)[C@H](N)C(=O)O [Threonine, threonine] | 0.000156 % (v/v) | 2 × | 0.0000391 % (v/v) | 2 × |  |  |  |  |  |  | faster complete reduction | no antimicrobial activity | faster complete reduction | immediate entire reduction |  | no antimicrobial activity | faster complete reduction | faster complete reduction | no antimicrobial activity | immediate entire reduction | MIC: GOX+LPO enzyme solution needed to completely inhibit growth ([2]; enhancer 2%): 0.0000195 % (v/v); increase in MIC compared to reference or guaiacol solution ([2]; enhancer 2%): 4 ×; MIC: GOX+LPO enzyme solution needed to completely inhibit growth ([3]; enhancer 0,1%): 0.000625 % (v/v); increase in MIC compared to reference ([3]; enhancer 0,1%): 2 ×; MIC: GOX+LPO enzyme solution needed to completely inhibit growth ([3]; enhancer 1%): 0.000156 % (v/v); increase in MIC compared to reference ([3]; enhancer 1%): 8 ×; reduction in absolute A. niger counts compared to guaiacol in the same concentration (A. niger (ATCC®16404 ™); enhancer 0.0025%): faster complete reduction; reduction in absolute C. albicans counts compared to reference (enzymes only) ([5]; enhancer 0,00125-0,0005%): faster complete reduction

Reference: patent publication US20260273028A1, “PEROXIDASE COMPOSITIONS CONTAINING IMPROVED ENHANCING AGENTS” (FLEN HEALTH PHARMA NV, priority 2022, published 2026)
